The results in this text go back to patent publication US11820776B2, “Process for the preparation of Remimazolam and solid state forms of Remimazolam salts” (WATSON LABORATORIES INC., priority 2017, dated 2023).

What all share (type): physicochemical
One data set is described as follows: Kinetic water solubility. Conditions: comparator not stated.
Data set [1] in a line: Solid state stability at 80% relative humidity in open Petri dish. Conditions: 80% relative humidity (RH), room temperature (RT).
Data set [2] is described as follows: Solubility in various pH ranges. Conditions: comparator not stated.
A short description of the next data set: Bulk density. Conditions: compared to Remimazolam besylate.
The nature of data set [3]: Compressibility properties. Conditions: compared to Remimazolam besylate; may indicate better flow properties.

Consider `Br.COC(=O)CC[C@@H]1N=C(c2ccccn2)c2cc(Br)ccc2-n2c(C)cnc21` [Form 1 of Remimazolam Mono hydrobromide], for which the kinetic water solubility result in the data set “Kinetic water solubility” is recorded as “improved”. Moreover, the “period for which the crystalline form is stable” value (from here on “period”) in data set [1] is on record as “at least 24 hours”. In data set [2], the “solubility in various pH ranges” value was “improved”.

In the case of `CC1(C)C2CCC1(CS(=O)(=O)O)C(=O)C2.COC(=O)CC[C@@H]1N=C(c2ccccn2)c2cc(Br)ccc2-n2c(C)cnc21` [Form 2 of Remimazolam Camphor Sulfonate], the bulk density entry in “Bulk density” is “higher”. The compressibility properties entry in data set [3] is recorded as “improved”. Besides, the “period” value in data set [1] was “at least 24 hours”.

Regarding `COC(=O)CC[C@@H]1N=C(c2ccccn2)c2cc(Br)ccc2-n2c(C)cnc21.CS(=O)(=O)O` [Form 2 of Remimazolam Methane Sulfonate], the kinetic water solubility result in the data set “Kinetic water solubility” is “improved”. The “period” value in data set [1] is listed as “at least 24 hours”. The “solubility in various pH ranges” value in data set [2] is “improved”.
